Test results taken from patent US7842782B2, “Heparanase-derived peptides for vaccination of tumor patients” (Deutsches Krebsforschungszentrum Stiftung Des Öffentlichen …, priority 2003, dated 2010).

Tests used:
[1] = tested on: peptide-specific T-cells from the bone marrow (BMTCs); test: IFN-γ Enzyme-Linked Immuno Assay (ELISpot); assay type: cell-based, human; conditions: for patients significantly reacted against peptide: BMTCs of 15 female breast cancer patients, insulin p34 negative control, 10 μg/ml peptide; for reaction of T cells in ELISpot: vs insulin
Description: Mononuclear cells (MNC) from periphery blood (PB) and bone marrow (BM) were isolated via Ficoll gradients (Biocoll separating solution, Biochrom AG). MNC were washed two times with RPMI 1640, transferred to uncoated cell culture dishes, and grown for two hours at 37° C., 5% CO2 in x-VIVO-20 media (BioWhittaker, Walkersville, Md.) for adhesion. Adherent cells were cultivated for 7 day in x-VIVO-20 media with the addition of GM-CSF ([…]; Behringwerke, Marburg) and IL-4 (1000 U/ml; Promocell, Heidelberg). Dendritic cells (DCs) were magnetically isolated via anti-CD-3-coated and anti-CD-19-coated magnetic beads (Dynal). Non-adherent cells were cultivated for 7 days in RPMI 1640 supplemented with 8% human AB sera (Sigma), rhuIL-2 (100 U/ml; Chiron, Ratingen) and IL-4 (60 U/ml). T cells (TCs) were purified via anti-CD-56-coated, anti-CD-19-coated and anti-CD-15-coated magnetic beads.
The number of peptide-specific T-cells from the bone marrow (BMTCs) of female patients is determined by the ELISpot method. For this purpose, a 96-well ELISpot plate (Millipore) is coated with anti-human-IFNγ antibodies (ELISpot Kit, Mabtech) over night at 4° C. and then one hour blocked with RPMI 5% AB sera (37° C., 5% CO2). 10^4 DCs, 10^5 TCs and 10 μg/ml peptide are cultivated on the IFN-γ-coated ELISpot plate for 40 hours (37° C., 5% CO2). Supernatants are discarded and the plate is developed via the ELISpot kit (Mabtech). IFN-γ producing cells are counted with Axioplan Mikroskop (Zeiss) by using the KS ELISpot software. For negative controls, HIV or insulin peptides are used. Each group is determined in triplicate. Positive results are measured via the so-called T-test (p<0.05).

CD8-positive T cells = test: Tetramer staining (HLA-A2/peptide tetramers, flow cytometry); assay type: cell-based, human; conditions: 2 examined patients (text summary of Table 4)
Description: 10^6 of each BM-MNC and PB-MNC are blocked with 5% endobulin (immunoglobulin G), incubated with tetramers on ice for 45 min and then stained with CD8-FITC (Becton Dickinson). Dead cells are identified by propidium iodide. The number of T-cells which are double positive for CD8 and tetramer are determined by flow cytometry.

Row | Substance | patients significantly reacted against peptide [1] [%] | reaction of T cells in ELISpot ([1]; MaCa patient 503) | reaction of T cells in ELISpot ([1]; MaCa patient 579) | reaction of T cells in ELISpot ([1]; MaCa patient 590) | reaction of T cells in ELISpot ([1]; MaCa patient 639) | reaction of T cells in ELISpot ([1]; MaCa patient 790) | reaction of T cells in ELISpot ([1]; MaCa patient 923) | HLA-A2peptide staining of CD8-positive T cells (CD8-positive T cells) | reaction of T cells in ELISpot ([1]; MaCa patient 581) | reaction of T cells in ELISpot ([1]; MaCa patient 753) | reaction of T cells in ELISpot ([1]; MaCa patient 704)
1 | L L L G P L G P L (LLLGPLGPL) [Hpa p16] | 33 | x (x = positive (p value < 0.05) reaction of T cells in ELISpot) | x (x = positive (p value < 0.05) reaction of T cells in ELISpot) | x (x = positive (p value < 0.05) reaction of T cells in ELISpot) | x (x = positive (p value < 0.05) reaction of T cells in ELISpot) | x (x = positive (p value < 0.05) reaction of T cells in ELISpot) | x (x = positive (p value < 0.05) reaction of T cells in ELISpot) | enriched fractions of CD8-positive T cells | – | – | –
2 | D L I F G L N A L (DLIFGLNAL) [Hpa p183] | 40 | x (x = positive (p value < 0.05) reaction of T cells in ELISpot) | x (x = positive (p value < 0.05) reaction of T cells in ELISpot) | – | x (x = positive (p value < 0.05) reaction of T cells in ELISpot) | x (x = positive (p value < 0.05) reaction of T cells in ELISpot) | – | – | x (x = positive (p value < 0.05) reaction of T cells in ELISpot) | x (x = positive (p value < 0.05) reaction of T cells in ELISpot) | –
3 | A L P P P L M L L (ALPPPLMLL) [Hpa p8] | 20 | x (x = positive (p value < 0.05) reaction of T cells in ELISpot) | – | – | x (x = positive (p value < 0.05) reaction of T cells in ELISpot) | – | – | enriched fractions of CD8-positive T cells | – | – | x (x = positive (p value < 0.05) reaction of T cells in ELISpot)
